From patent publication US20100130604A1, “USE OF ROSMARINIC ACID IN MANUFACTURE OF MEDICAMENTS FOR TREATING OR PREVENTING HEPATIC AND RENAL DISEASES” (SHANGDONG LUYE NATURAL DRUG RESEARCH AND DEVELOPMENT CO., …, priority 2006, published 2010)
Marks after values point to notes of the source that are not given here.

Tested on: hepatofibrosis in rats
Test: CCl4-induced hepatofibrosis in chronic hepatitis in rats
Format: in vivo, Sprague Dawley rats
Conditions: for T (Rank-sum test of fibrosis) / fiber proliferation level 0 (number of rats) / fiber proliferation level I (number of rats) / fiber proliferation level II (number of rats) / fiber proliferation level III (number of rats) / fiber proliferation level IV (number of rats) / HYP / HA / LN / PCIII: 6 weeks; for fiber proliferation level 0 (number of rats) / fiber proliferation level I (number of rats) / fiber proliferation level II (number of rats) / fiber proliferation level III (number of rats) / fiber proliferation level IV (number of rats): n=10; for HYP: hepatic; for HA / LN / PCIII: serum
Description: 120 rats were randomly divided into 12 groups, with 10 in each group, namely, a normal control group, a model group, […] Apart from the normal control group, all rats were s.c. injected 0.3 ml of 40% solution of CC14 in oil per 100 g of body weight once every 3 days for 6 weeks. Animals in the normal control group were s.c. injected 0.3 ml/100 g body weight of oil vehicle following the same schedule as the experimental groups. First dose was doubled for all animals. Six weeks later, drugs were continuously administered to animals in each group for 6 weeks. After the administration was completed, all animals were anaesthetised with i.p. injection of 20% ethyl carbamate solution (Beijing Tongxian District Yucai Fine Chemicals). Blood was collected from abdominal aorta. Hepatic lobule tissue was removed, part of which was fixed with 10% neutral foinialin solution and made into wax blocks within 24-48 hours. […] Serum HA, LN, Pc III levels and hepatic HYP level were determined according to the respective kit instructions.

## O=C(/C=C/c1ccc(O)c(O)c1)O[C@H](Cc1ccc(O)c(O)c1)C(=O)O [RA, R(+)2-{[3-(3,4-dihydroxylphenyl-(oxo-2-propenyl)oxy]3,4-dihydroxylphenylpropionic acid]}]
RA i.v. 2.5 mg/kg
  T (Rank-sum test of fibrosis): 82*
  fiber proliferation level 0 (number of rats): 0
  fiber proliferation level I (number of rats): 1
  fiber proliferation level II (number of rats): 2
  fiber proliferation level III (number of rats): 3
  fiber proliferation level IV (number of rats): 4
RA i.v. 5 mg/kg
  T (Rank-sum test of fibrosis): 81.5*
  fiber proliferation level 0 (number of rats): 0
  fiber proliferation level I (number of rats): 1
  fiber proliferation level II (number of rats): 2
  fiber proliferation level III (number of rats): 6
  fiber proliferation level IV (number of rats): 1
RA i.v. 25 mg/kg
  T (Rank-sum test of fibrosis): 76*
  fiber proliferation level 0 (number of rats): 0
  fiber proliferation level I (number of rats): 2
  fiber proliferation level II (number of rats): 3
  fiber proliferation level III (number of rats): 4
  fiber proliferation level IV (number of rats): 1
RA i.v. 75 mg/kg
  T (Rank-sum test of fibrosis): 71**
  fiber proliferation level 0 (number of rats): 0
  fiber proliferation level I (number of rats): 3
  fiber proliferation level II (number of rats): 2
  fiber proliferation level III (number of rats): 5
  fiber proliferation level IV (number of rats): 0
RA i.v. 150 mg/kg
  T (Rank-sum test of fibrosis): 66**
  fiber proliferation level 0 (number of rats): 0
  fiber proliferation level I (number of rats): 3
  fiber proliferation level II (number of rats): 4
  fiber proliferation level III (number of rats): 3
  fiber proliferation level IV (number of rats): 0
RA p.o. 2.5 mg/kg
  T (Rank-sum test of fibrosis): 95
  fiber proliferation level 0 (number of rats): 0
  fiber proliferation level I (number of rats): 1
  fiber proliferation level II (number of rats): 2
  fiber proliferation level III (number of rats): 3
  fiber proliferation level IV (number of rats): 4
RA p.o. 5 mg/kg
  T (Rank-sum test of fibrosis): 77*
  fiber proliferation level 0 (number of rats): 0
  fiber proliferation level I (number of rats): 1
  fiber proliferation level II (number of rats): 2
  fiber proliferation level III (number of rats): 7
  fiber proliferation level IV (number of rats): 0
RA p.o. 25 mg/kg
  T (Rank-sum test of fibrosis): 71**
  fiber proliferation level 0 (number of rats): 0
  fiber proliferation level I (number of rats): 3
  fiber proliferation level II (number of rats): 2
  fiber proliferation level III (number of rats): 5
  fiber proliferation level IV (number of rats): 0
RA p.o. 150 mg/kg
  T (Rank-sum test of fibrosis): 66**
  fiber proliferation level 0 (number of rats): 0
  fiber proliferation level I (number of rats): 3
  fiber proliferation level II (number of rats): 4
  fiber proliferation level III (number of rats): 3
  fiber proliferation level IV (number of rats): 0
RA p.o. 300 mg/kg
  T (Rank-sum test of fibrosis): 66**
  fiber proliferation level 0 (number of rats): 0
  fiber proliferation level I (number of rats): 2
  fiber proliferation level II (number of rats): 5
  fiber proliferation level III (number of rats): 2
  fiber proliferation level IV (number of rats): 1
RA treated groups
  liver, electronic microscopic examination: hepatocyte damages were alleviated
  liver, light microscopic examination (HE, VG collagen staining): less fiber connective tissue hyperplasia, thinner fibrous septa and less pseudolobule formation
All RA treated groups vs model group
  liver fibrosis, pathology examination: less severe fibrosis
i.v. 2.5 mg/kg
  HYP: 1657 ± 124 µg/L
  HA: 111.2 ± 24.1 µg/L
  LN: 72.6 ± 19.0 µg/L
  PCIII: 36.2 ± 7.8 µg/L
i.v. 5 mg/kg
  HYP: 1630 ± 110 µg/L
  HA: 106.3 ± 23.4 µg/L
  LN: 68.3 ± 17.9 µg/L
  PCIII: 34.2 ± 7.6 µg/L
i.v. 25 mg/kg
  HYP: 1578 ± 113 µg/L
  HA: 97.5 ± 23.6 µg/L
  LN: 62.0 ± 20.0 µg/L
  PCIII: 31.4 ± 7.8 µg/L
i.v. 75 mg/kg
  HYP: 1278 ± 121 µg/L
  HA: 77.9 ± 20.7 µg/L
  LN: 57.6 ± 16.8 µg/L
  PCIII: 26.5 ± 9.1 µg/L
i.v. 150 mg/kg
  HYP: 1217 ± 143 µg/L
  HA: 74.6 ± 18.9 µg/L
  LN: 55.3 ± 14.6 µg/L
  PCIII: 25.7 ± 7.8 µg/L
p.o. 2.5 mg/kg
  HYP: 1724 ± 121 µg/L
  HA: 113.8 ± 24.8 µg/L
  LN: 79.1 ± 19.4 µg/L
  PCIII: 38.0 ± 7.5 µg/L
p.o. 5 mg/kg
  HYP: 1614 ± 121 µg/L
  HA: 104.3 ± 26.4 µg/L
  LN: 69.3 ± 16.9 µg/L
  PCIII: 33.7 ± 7.3 µg/L
p.o. 25 mg/kg
  HYP: 1535 ± 125 µg/L
  HA: 97.0 ± 24.6 µg/L
  LN: 61.0 ± 20.6 µg/L
  PCIII: 31.6 ± 7.2 µg/L
p.o. 150 mg/kg
  HYP: 1299 ± 153 µg/L
  HA: 84.9 ± 20.5 µg/L
  LN: 59.6 ± 16.8 µg/L
  PCIII: 27.5 ± 9.6 µg/L
p.o. 300 mg/kg
  HYP: 1250 ± 174 µg/L
  HA: 80.7 ± 18.6 µg/L
  LN: 57.3 ± 18.6 µg/L
  PCIII: 26.9 ± 10.5 µg/L
i.v. 2.5, 5, 25, 75, 150 mg/kg, p.o. 5, 25, 150, 300 mg/kg
  fibrosis (Rank-sum test): can significantly reduce fibrosis
i.v. 2.5, 5, 25, 75, 150 mg/kg, p.o. 5, 25, 150, 300 mg/kg, p<0.05 or 0.01
  HA, LN, Pc III and HYP levels vs model group: can all significantly reduce HA, LN, Pc III, and HYP levels
